PubChem BioAssay AID2060494 (Molecular Pharmacology Branch, DTP, NCI, 2025)

Test system: 435261-313-R-J1-PDC complex spheroid viability
Experiment: Anticancer human tumor 435261-313-R-J1-PDC patient-derived colon adenocarcinoma cell line growth inhibition [GQUAD]
Conditions: for IC50: curve of first compound; for viability, T/C: stronger effect = lower value
Source text: DNA G-quadruplex Stabilizer Agents in Combinations in Complex Spheroids
A high-throughput screen of multi-cell type tumor spheroids was designed to identify active combinations of DNA G-quadruplex stabilizer agents and targeted small molecules. Complex spheroids include a stromal component modeled by human endothelial cells (HUVEC) and fibroblasts modeled by human mesenchymal stem cells (MSCs). The concentration ranges selected for each drug and investigational agent were based upon clinically achievable concentrations if the clinical Cmax of the agent was known.
Compounds. The drugs and investigational agents: pidnarulex (CX-5461; NSC782164), APTO-253 (NSC789042), BRACO-19 (NSC847499), peposertib (NSC802822), ceralasertib (NSC780249), elimusertib (NSC800525), camonsertib (NSC841442), AZD-1390 (NSC803789), olaparib (NSC753686), talazoparib (NSC767125), ART-558 (NSC835418), sotorasib (NSC818433), MRTX-1133 (NSC836407), SN-38 (NSC673596), topotecan (NSC609699), etoposide (NSC141540), doxorubicin (NSC123127), gemcitabine (NSC613327), 5-fluorouracil (NSC19893), paclitaxel (NSC125973), vemurafenib (NSC761431), panobinostat (NSC761190), R-306465 (JNJ-16241199; NSC773264), adavosertib (NSC754352), TP-3654 (NSC805149), carboplatin (NSC241240), KSQ-4279 (NSC840948), and staurosporine (NSC755774) were obtained from the National Cancer Institute (NCI) Developmental Therapeutics Program Chemical Repository (34). The FDA-approved anticancer drug set is available from the NCI Developmental Therapeutics Program. […] The stock solutions were prepared in dimethyl sulfoxide (DMSO, Sigma-Aldrich, St. Louis, MO, cat. D2650) at 800-fold the tested concentration and stored at -70 degrees C prior to their use. All drugs and investigational agents were tested over a range starting from a high concentration at or near the clinical Cmax and decreasing in half-log increments. If the clinical Cmax for an agent had not been determined, the highest concentration tested was 10 microM.
2.3 Cell Culture. All cells were maintained in an incubator at 37 degrees C and 5% CO2 with 95% humidity. The PDC lines were cultured according to standard operating procedures established by the NCI PDMR. All PDCs were thawed and cultured in Matrigel-coated flasks prepared with a working solution of 1X Ham's F-12 nutrient mix, without supplementation (Invitrogen, cat. 11765054), 100 U/mL penicillin-streptomycin (Invitrogen, cat. 15140122), and 2.5% Matrigel (Corning Inc., cat. 354248) for the first three passages. The 857933-349-R-J2-PDC line was cultured in 6C/Colon 1B media, which includes advanced DMEM/F-12 (Thermo Fisher Scientific, cat. 12634028), 10 mM HEPES (Thermo Fisher Scientific, cat. 15630080), 1X GlutaMAX supplement (Thermo Fisher Scientific, cat. 35050061), 0.1 mg/mL primocin (InvivoGen, cat. ant-pm-2), 10% defined fetal bovine serum, heat inactivated (HyClone Laboratories Inc., cat. SH30070.03HI), 50% L-WRN conditioned media (ATCC, cat. CRL-3276), 1.25 mM N-Acetyl-L-cysteine (Sigma-Aldrich, cat. A9165), 10 mM nicotinamide (Sigma-Aldrich, cat. N0636), 1X B-27 supplement (Thermo Fisher Scientific, cat. 17504044), 1X N-2 supplement (Thermo Fisher Scientific, cat. 17502048), 10 microM Y-27632 dihydrochloride (Tocris Bioscience, cat. 1254), and 50 ng/mL human EGF recombinant protein (Thermo Fisher Scientific, cat. PHG0311). The 485176-168-R4-J1-PDC line was cultured in Panc media, which includes all 6C/Colon 1B media components plus 100 ng/mL human FGF-10 (Thermo Fisher Scientific, cat. 100-26), 500 nM SB-431542 (Selleckchem, cat. S1067), and gastrin (Tocris, cat. 3006).
[…]

[1] = second compound 0.0316 µM, first compound 0.0316 µM
[2] = second compound 0.0316 µM, first compound 0.1 µM
[3] = second compound 0.0316 µM, first compound 0.316 µM
[4] = second compound 0.0316 µM, first compound 1 µM
[5] = second compound 0.0316 µM, first compound 3.16 µM
[6] = second compound 0.0316 µM, first compound 10 µM
[7] = second compound 0.1 µM, first compound 0.0316 µM
[8] = second compound 0.1 µM, first compound 0.1 µM
[9] = second compound 0.1 µM, first compound 0.316 µM
[10] = second compound 0.1 µM, first compound 1 µM
[11] = second compound 0.1 µM, first compound 3.16 µM
[12] = second compound 0.1 µM, first compound 10 µM
[13] = second compound 0.316 µM, first compound 0.0316 µM
[14] = second compound 0.316 µM, first compound 0.1 µM
[15] = second compound 0.316 µM, first compound 0.316 µM
[16] = second compound 0.316 µM, first compound 1 µM
[17] = second compound 0.316 µM, first compound 3.16 µM
[18] = second compound 0.316 µM, first compound 10 µM
[19] = second compound 1 µM, first compound 0.0316 µM
[20] = second compound 1 µM, first compound 0.1 µM
[21] = second compound 1 µM, first compound 0.316 µM
[22] = second compound 1 µM, first compound 1 µM
[23] = second compound 1 µM, first compound 3.16 µM
[24] = second compound 1 µM, first compound 10 µM
[25] = second compound 3.16 µM, first compound 0.0316 µM
[26] = second compound 3.16 µM, first compound 0.1 µM
[27] = second compound 3.16 µM, first compound 0.316 µM
[28] = second compound 3.16 µM, first compound 1 µM
[29] = second compound 3.16 µM, first compound 3.16 µM
[30] = second compound 3.16 µM, first compound 10 µM
[31] = second compound 10 µM, first compound 0.0316 µM
[32] = second compound 10 µM, first compound 0.1 µM
[33] = second compound 10 µM, first compound 0.316 µM
[34] = second compound 10 µM, first compound 1 µM
[35] = second compound 10 µM, first compound 3.16 µM
[36] = second compound 10 µM, first compound 10 µM
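Note: spheroids exposed to the agents for seven days before readout.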
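Throughout, for viability, T/C: percent of vehicle control viability with DMSO wells as 100%.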

CC(=O)O[C@H]1C(=O)[C@@]2(C)[C@H]([C@H](OC(=O)c3ccccc3)[C@]3(O)C[C@H](OC(=O)[C@H](O)[C@@H](NC(=O)c4ccccc4)c4ccccc4)C(C)=C1C3(C)C)[C@]1(OC(C)=O)CO[C@@H]1C[C@@H]2O + CN(C)c1ccc(Nc2c3ccc(NC(=O)CCN4CCCC4)cc3nc3cc(NC(=O)CCN4CCCC4)ccc23)cc1
IC50 (second compound 0.0316 µM): > 10000 nM
IC50 (second compound 0.1 µM): > 10000 nM
IC50 (second compound 0.316 µM): > 10000 nM
IC50 (second compound 1 µM): > 10000 nM
IC50 (second compound 3.16 µM): > 10000 nM
IC50 (second compound 10 µM): < 31.6 nM
viability, T/C [1]: 94.3%
viability, T/C [2]: 78.6%
viability, T/C [3]: 84.6%
viability, T/C [4]: 69.9%
viability, T/C [5]: 69.1%
viability, T/C [6]: 76.5%
viability, T/C [7]: 71.9%
viability, T/C [8]: 72.5%
viability, T/C [9]: 77.4%
viability, T/C [10]: 62%
viability, T/C [11]: 75.3%
viability, T/C [12]: 70.5%
viability, T/C [13]: 72.5%
viability, T/C [14]: 82.5%
viability, T/C [15]: 73.7%
viability, T/C [16]: 69.2%
viability, T/C [17]: 68.4%
viability, T/C [18]: 61.5%
viability, T/C [19]: 80.4%
viability, T/C [20]: 61.5%
viability, T/C [21]: 59.4%
viability, T/C [22]: 63.5%
viability, T/C [23]: 73.3%
viability, T/C [24]: 63.6%
viability, T/C [25]: 52.3%
viability, T/C [26]: 52.6%
viability, T/C [27]: 48.6%
viability, T/C [28]: 60.9%
viability, T/C [29]: 52.8%
viability, T/C [30]: 55.1%
viability, T/C [31]: 31.6%
viability, T/C [32]: 19.9%
viability, T/C [33]: 23.6%
viability, T/C [34]: 21.2%
viability, T/C [35]: 27.5%
viability, T/C [36]: 16.8%

CCc1c2c(nc3ccc(O)cc13)-c1cc3c(c(=O)n1C2)COC(=O)[C@]3(O)CC + CN(C)c1ccc(Nc2c3ccc(NC(=O)CCN4CCCC4)cc3nc3cc(NC(=O)CCN4CCCC4)ccc23)cc1
IC50 (second compound 0.0316 µM): > 316 nM
IC50 (second compound 0.1 µM): 240 nM
IC50 (second compound 0.316 µM): 94.9 nM
IC50 (second compound 1 µM): 104 nM
IC50 (second compound 3.16 µM): 43.7 nM
IC50 (second compound 10 µM): < 0.999 nM
viability, T/C (second compound 0.0316 µM, first compound 0.000999 µM): 111%
viability, T/C (second compound 0.0316 µM, first compound 0.00316 µM): 103%
viability, T/C (second compound 0.0316 µM, first compound 0.00999 µM): 73.4%
viability, T/C [1]: 69.2%
viability, T/C (second compound 0.0316 µM, first compound 0.0999 µM): 65.1%
viability, T/C [3]: 48.6%
viability, T/C (second compound 0.1 µM, first compound 0.000999 µM): 86.2%
viability, T/C (second compound 0.1 µM, first compound 0.00316 µM): 91.2%
viability, T/C (second compound 0.1 µM, first compound 0.00999 µM): 72.3%
viability, T/C [7]: 74.5%
viability, T/C (second compound 0.1 µM, first compound 0.0999 µM): 72.4%
viability, T/C [9]: 42.3%
viability, T/C (second compound 0.316 µM, first compound 0.000999 µM): 76.4%
viability, T/C (second compound 0.316 µM, first compound 0.00316 µM): 77.1%
viability, T/C (second compound 0.316 µM, first compound 0.00999 µM): 66.7%
viability, T/C [13]: 78.8%
viability, T/C (second compound 0.316 µM, first compound 0.0999 µM): 48.9%
viability, T/C [15]: 45.1%
viability, T/C (second compound 1 µM, first compound 0.000999 µM): 62.2%
viability, T/C (second compound 1 µM, first compound 0.00316 µM): 81.2%
viability, T/C (second compound 1 µM, first compound 0.00999 µM): 65.2%
viability, T/C [19]: 70.9%
viability, T/C (second compound 1 µM, first compound 0.0999 µM): 50.4%
viability, T/C [21]: 39.3%
viability, T/C (second compound 3.16 µM, first compound 0.000999 µM): 50.2%
viability, T/C (second compound 3.16 µM, first compound 0.00316 µM): 57%
viability, T/C (second compound 3.16 µM, first compound 0.00999 µM): 56.8%
viability, T/C [25]: 56.2%
viability, T/C (second compound 3.16 µM, first compound 0.0999 µM): 37.1%
viability, T/C [27]: 22.2%
viability, T/C (second compound 10 µM, first compound 0.000999 µM): 34.9%
viability, T/C (second compound 10 µM, first compound 0.00316 µM): 30.8%
viability, T/C (second compound 10 µM, first compound 0.00999 µM): 29.8%
viability, T/C [31]: 27.1%
viability, T/C (second compound 10 µM, first compound 0.0999 µM): 18.6%
viability, T/C [33]: 13.6%

COc1ccc([C@@H](O)c2cc(-c3ncnc4cc(N5CCOCC5)ccc34)c(F)cc2Cl)nn1 + CN(C)c1ccc(Nc2c3ccc(NC(=O)CCN4CCCC4)cc3nc3cc(NC(=O)CCN4CCCC4)ccc23)cc1
IC50 (second compound 0.0316 µM): 4190 nM
IC50 (second compound 0.1 µM): 4300 nM
IC50 (second compound 0.316 µM): 2380 nM
IC50 (second compound 1 µM): 2270 nM
IC50 (second compound 3.16 µM): 451 nM
IC50 (second compound 10 µM): 134 nM
viability, T/C [1]: 99%
viability, T/C [2]: 120%
viability, T/C [3]: 108%
viability, T/C [4]: 83.9%
viability, T/C [5]: 56.6%
viability, T/C [6]: 35.8%
viability, T/C [7]: 107%
viability, T/C [8]: 100%
viability, T/C [9]: 85.3%
viability, T/C [10]: 68.9%
viability, T/C [11]: 57.9%
viability, T/C [12]: 35.5%
viability, T/C [13]: 94.3%
viability, T/C [14]: 137%
viability, T/C [15]: 79.7%
viability, T/C [16]: 63.9%
viability, T/C [17]: 55.3%
viability, T/C [18]: 26.7%
viability, T/C [19]: 72%
viability, T/C [20]: 76.4%
viability, T/C [21]: 70.9%
viability, T/C [22]: 64.5%
viability, T/C [23]: 44.2%
viability, T/C [24]: 23.9%
viability, T/C [25]: 59.7%
viability, T/C [26]: 48%
viability, T/C [27]: 69%
viability, T/C [28]: 30%
viability, T/C [29]: 24.6%
viability, T/C [30]: 11.5%
viability, T/C [31]: 56.1%
viability, T/C [32]: 59.8%
viability, T/C [33]: 26.9%
viability, T/C [34]: 14.7%
viability, T/C [35]: 8.59%
viability, T/C [36]: 5.21%
